Biological target: Cytochrome P450 3A4 (Homo sapiens, UniProt P08684); further: in other assays of this panel Not Active means under 50% inhibition at 10 µM
Settings: bti-tn-5b1-4

Chain of Cytochrome P450 3A4 (P08684 whole entry): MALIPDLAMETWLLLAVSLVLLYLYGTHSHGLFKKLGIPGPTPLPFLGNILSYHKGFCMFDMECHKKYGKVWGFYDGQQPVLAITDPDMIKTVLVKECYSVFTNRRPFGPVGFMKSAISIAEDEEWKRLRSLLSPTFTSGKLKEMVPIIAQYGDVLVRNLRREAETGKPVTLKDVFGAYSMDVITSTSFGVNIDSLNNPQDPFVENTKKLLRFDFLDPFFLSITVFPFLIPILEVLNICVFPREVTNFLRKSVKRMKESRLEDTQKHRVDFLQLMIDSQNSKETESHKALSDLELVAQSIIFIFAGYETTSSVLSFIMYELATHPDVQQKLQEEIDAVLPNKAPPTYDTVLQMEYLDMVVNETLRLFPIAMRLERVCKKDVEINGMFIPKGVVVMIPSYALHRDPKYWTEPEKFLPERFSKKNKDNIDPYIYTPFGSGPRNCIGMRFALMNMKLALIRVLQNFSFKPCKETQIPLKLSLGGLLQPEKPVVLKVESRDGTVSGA

SMILES	IC50	Ki
C[C@]12CC[C@@H]3c4ccc(OC(=O)c5ccccc5)cc4CC[C@H]3[C@@H]1CC[C@@H]2O [ESTRADIOL BENZOATE]	Not Active	Not Active
C[C@]12CC[C@@H]3c4ccc(O)cc4CC[C@H]3[C@@H]1CC[C@@H]2O [ESTRADIOL]	Not Active	Not Active
CC[C@@H](CO)NCCN[C@@H](CC)CO [ETHAMBUTOL]	Not Active	Not Active
CC1(C)O[C@@H]2C[C@H]3[C@@H]4C[C@H](F)C5=CC(=O)C=C[C@]5(C)[C@H]4[C@@H](O)C[C@]3(C)[C@]2(C(=O)CO)O1 [FLUNISOLIDE]	Not Active	Not Active
CC1(C)O[C@@H]2C[C@H]3[C@@H]4C[C@H](F)C5=CC(=O)C=C[C@]5(C)[C@@]4(F)[C@@H](O)C[C@]3(C)[C@]2(C(=O)CO)O1 [FLUOCINOLONE ACETONIDE]	Not Active	Not Active
CC1(C)O[C@@H]2C[C@H]3[C@@H]4C[C@H](F)C5=CC(=O)CC[C@]5(C)[C@H]4[C@@H](O)C[C@]3(C)[C@]2(C(=O)CO)O1 [FLURANDRENOLIDE]	Not Active	Not Active
Cc1ccc(S(=O)(=O)NC(=O)NN2CC3CCCC3C2)cc1 (stereo not drawn) [GLICLAZIDE]	Not Active	Not Active
CC(C)Cc1ccc(C(C)C(=O)O)cc1 (stereo not drawn) [IBUPROFEN]	Not Active	Not Active
COc1ccc2c(c1)c(CC(=O)O)c(C)n2C(=O)c1ccc(Cl)cc1 [INDOMETHACIN]	Not Active	Not Active
CCc1c2c(nc3ccc(OC(=O)N4CCC(N5CCCCC5)CC4)cc13)-c1cc3c(c(=O)n1C2)COC(=O)[C@]3(O)CC [IRINOTECAN]	Not Active	Not Active
CC(C(=O)O)c1cccc(C(=O)c2ccccc2)c1 (stereo not drawn) [KETOPROFEN]	Not Active	Not Active

Biological target: Mu-type opioid receptor (Homo sapiens, UniProt P35372)
Sequence (P35372 whole entry): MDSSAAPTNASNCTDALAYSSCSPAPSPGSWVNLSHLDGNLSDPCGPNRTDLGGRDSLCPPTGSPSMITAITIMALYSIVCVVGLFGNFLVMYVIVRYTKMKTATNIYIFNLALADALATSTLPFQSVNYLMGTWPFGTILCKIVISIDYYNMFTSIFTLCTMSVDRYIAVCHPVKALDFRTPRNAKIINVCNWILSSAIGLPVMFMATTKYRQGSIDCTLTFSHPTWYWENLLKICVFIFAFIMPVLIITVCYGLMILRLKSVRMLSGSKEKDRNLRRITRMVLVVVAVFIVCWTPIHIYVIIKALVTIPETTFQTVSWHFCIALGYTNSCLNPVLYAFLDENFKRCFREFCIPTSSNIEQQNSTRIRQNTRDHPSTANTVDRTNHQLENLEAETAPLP
Experiment: DRUGMATRIX: Opiate mu (OP3, MOP) radioligand binding (ligand: [3H] Diprenorphine)
Assay type: cell membranes, CHO-K1, Membrane
Settings: cho-k1; Not Active = under 50% inhibition at 10 µM

SMILES	IC50
C[C@]12CC[C@@H]3c4ccc(OC(=O)c5ccccc5)cc4CC[C@H]3[C@@H]1CC[C@@H]2O [ESTRADIOL BENZOATE]	Not Active
C[C@]12CC[C@@H]3c4ccc(O)cc4CC[C@H]3[C@@H]1CC[C@@H]2O [ESTRADIOL]	Not Active
CC[C@@H](CO)NCCN[C@@H](CC)CO [ETHAMBUTOL]	Not Active
CC1(C)O[C@@H]2C[C@H]3[C@@H]4C[C@H](F)C5=CC(=O)C=C[C@]5(C)[C@H]4[C@@H](O)C[C@]3(C)[C@]2(C(=O)CO)O1 [FLUNISOLIDE]	Not Active
CC1(C)O[C@@H]2C[C@H]3[C@@H]4C[C@H](F)C5=CC(=O)C=C[C@]5(C)[C@@]4(F)[C@@H](O)C[C@]3(C)[C@]2(C(=O)CO)O1 [FLUOCINOLONE ACETONIDE]	Not Active
CC1(C)O[C@@H]2C[C@H]3[C@@H]4C[C@H](F)C5=CC(=O)CC[C@]5(C)[C@H]4[C@@H](O)C[C@]3(C)[C@]2(C(=O)CO)O1 [FLURANDRENOLIDE]	Not Active
Cc1ccc(S(=O)(=O)NC(=O)NN2CC3CCCC3C2)cc1 (stereo not drawn) [GLICLAZIDE]	Not Active
CC(C)Cc1ccc(C(C)C(=O)O)cc1 (stereo not drawn) [IBUPROFEN]	Not Active
COc1ccc2c(c1)c(CC(=O)O)c(C)n2C(=O)c1ccc(Cl)cc1 [INDOMETHACIN]	Not Active
CCc1c2c(nc3ccc(OC(=O)N4CCC(N5CCCCC5)CC4)cc13)-c1cc3c(c(=O)n1C2)COC(=O)[C@]3(O)CC [IRINOTECAN]	Not Active
CC(C(=O)O)c1cccc(C(=O)c2ccccc2)c1 (stereo not drawn) [KETOPROFEN]	Not Active

Biological target: Epidermal growth factor receptor (Homo sapiens, UniProt P00533)
Sequence (P00533 whole entry): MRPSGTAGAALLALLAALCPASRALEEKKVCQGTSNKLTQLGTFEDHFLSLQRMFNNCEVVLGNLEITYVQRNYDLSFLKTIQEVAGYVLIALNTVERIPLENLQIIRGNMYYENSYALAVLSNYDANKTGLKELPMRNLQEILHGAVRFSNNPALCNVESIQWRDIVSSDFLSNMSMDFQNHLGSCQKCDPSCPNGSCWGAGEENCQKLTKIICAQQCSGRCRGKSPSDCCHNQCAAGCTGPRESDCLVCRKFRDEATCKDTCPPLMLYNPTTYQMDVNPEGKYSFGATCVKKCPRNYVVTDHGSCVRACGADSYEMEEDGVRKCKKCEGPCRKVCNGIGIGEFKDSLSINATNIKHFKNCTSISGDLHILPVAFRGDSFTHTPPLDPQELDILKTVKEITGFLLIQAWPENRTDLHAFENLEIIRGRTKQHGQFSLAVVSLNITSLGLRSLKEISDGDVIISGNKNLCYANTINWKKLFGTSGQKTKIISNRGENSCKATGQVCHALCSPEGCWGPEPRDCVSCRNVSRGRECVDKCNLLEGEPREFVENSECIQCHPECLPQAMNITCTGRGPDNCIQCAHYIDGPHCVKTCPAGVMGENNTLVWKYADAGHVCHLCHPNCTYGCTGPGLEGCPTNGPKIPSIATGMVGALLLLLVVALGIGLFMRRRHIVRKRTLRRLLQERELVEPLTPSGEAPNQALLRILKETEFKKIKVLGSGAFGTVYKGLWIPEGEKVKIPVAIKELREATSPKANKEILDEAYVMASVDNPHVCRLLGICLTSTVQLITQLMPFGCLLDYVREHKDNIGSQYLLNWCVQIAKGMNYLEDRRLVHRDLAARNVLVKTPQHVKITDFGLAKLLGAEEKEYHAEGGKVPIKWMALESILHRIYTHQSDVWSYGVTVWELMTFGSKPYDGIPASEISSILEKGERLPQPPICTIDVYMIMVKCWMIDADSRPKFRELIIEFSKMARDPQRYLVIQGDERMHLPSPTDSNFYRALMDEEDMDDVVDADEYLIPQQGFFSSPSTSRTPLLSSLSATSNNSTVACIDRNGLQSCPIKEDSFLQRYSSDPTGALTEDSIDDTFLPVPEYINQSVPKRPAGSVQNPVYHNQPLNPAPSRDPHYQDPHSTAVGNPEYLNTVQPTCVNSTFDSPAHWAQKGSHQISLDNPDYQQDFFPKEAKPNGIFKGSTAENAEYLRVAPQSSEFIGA
Experiment: DRUGMATRIX: Protein Tyrosine Kinase, EGF Receptor enzyme inhibition (substrate: Poly(Glu:Tyr))
Assay type: cell-based, Insect cells
Settings: insect cells; Not Active = under 50% inhibition at 10 µM

SMILES	IC50
C[C@]12CC[C@@H]3c4ccc(OC(=O)c5ccccc5)cc4CC[C@H]3[C@@H]1CC[C@@H]2O [ESTRADIOL BENZOATE]	Not Active
C[C@]12CC[C@@H]3c4ccc(O)cc4CC[C@H]3[C@@H]1CC[C@@H]2O [ESTRADIOL]	Not Active
CC[C@@H](CO)NCCN[C@@H](CC)CO [ETHAMBUTOL]	Not Active
CC1(C)O[C@@H]2C[C@H]3[C@@H]4C[C@H](F)C5=CC(=O)C=C[C@]5(C)[C@H]4[C@@H](O)C[C@]3(C)[C@]2(C(=O)CO)O1 [FLUNISOLIDE]	Not Active
CC1(C)O[C@@H]2C[C@H]3[C@@H]4C[C@H](F)C5=CC(=O)C=C[C@]5(C)[C@@]4(F)[C@@H](O)C[C@]3(C)[C@]2(C(=O)CO)O1 [FLUOCINOLONE ACETONIDE]	Not Active
CC1(C)O[C@@H]2C[C@H]3[C@@H]4C[C@H](F)C5=CC(=O)CC[C@]5(C)[C@H]4[C@@H](O)C[C@]3(C)[C@]2(C(=O)CO)O1 [FLURANDRENOLIDE]	Not Active
Cc1ccc(S(=O)(=O)NC(=O)NN2CC3CCCC3C2)cc1 (stereo not drawn) [GLICLAZIDE]	Not Active
CC(C)Cc1ccc(C(C)C(=O)O)cc1 (stereo not drawn) [IBUPROFEN]	Not Active
COc1ccc2c(c1)c(CC(=O)O)c(C)n2C(=O)c1ccc(Cl)cc1 [INDOMETHACIN]	Not Active
CCc1c2c(nc3ccc(OC(=O)N4CCC(N5CCCCC5)CC4)cc13)-c1cc3c(c(=O)n1C2)COC(=O)[C@]3(O)CC [IRINOTECAN]	Not Active
CC(C(=O)O)c1cccc(C(=O)c2ccccc2)c1 (stereo not drawn) [KETOPROFEN]	Not Active

Biological target: Vascular endothelial growth factor receptor 1 (Homo sapiens, UniProt P17948); further: in other assays of this panel Not Active means under 50% inhibition at 10 µM
Sequence (P17948 whole entry): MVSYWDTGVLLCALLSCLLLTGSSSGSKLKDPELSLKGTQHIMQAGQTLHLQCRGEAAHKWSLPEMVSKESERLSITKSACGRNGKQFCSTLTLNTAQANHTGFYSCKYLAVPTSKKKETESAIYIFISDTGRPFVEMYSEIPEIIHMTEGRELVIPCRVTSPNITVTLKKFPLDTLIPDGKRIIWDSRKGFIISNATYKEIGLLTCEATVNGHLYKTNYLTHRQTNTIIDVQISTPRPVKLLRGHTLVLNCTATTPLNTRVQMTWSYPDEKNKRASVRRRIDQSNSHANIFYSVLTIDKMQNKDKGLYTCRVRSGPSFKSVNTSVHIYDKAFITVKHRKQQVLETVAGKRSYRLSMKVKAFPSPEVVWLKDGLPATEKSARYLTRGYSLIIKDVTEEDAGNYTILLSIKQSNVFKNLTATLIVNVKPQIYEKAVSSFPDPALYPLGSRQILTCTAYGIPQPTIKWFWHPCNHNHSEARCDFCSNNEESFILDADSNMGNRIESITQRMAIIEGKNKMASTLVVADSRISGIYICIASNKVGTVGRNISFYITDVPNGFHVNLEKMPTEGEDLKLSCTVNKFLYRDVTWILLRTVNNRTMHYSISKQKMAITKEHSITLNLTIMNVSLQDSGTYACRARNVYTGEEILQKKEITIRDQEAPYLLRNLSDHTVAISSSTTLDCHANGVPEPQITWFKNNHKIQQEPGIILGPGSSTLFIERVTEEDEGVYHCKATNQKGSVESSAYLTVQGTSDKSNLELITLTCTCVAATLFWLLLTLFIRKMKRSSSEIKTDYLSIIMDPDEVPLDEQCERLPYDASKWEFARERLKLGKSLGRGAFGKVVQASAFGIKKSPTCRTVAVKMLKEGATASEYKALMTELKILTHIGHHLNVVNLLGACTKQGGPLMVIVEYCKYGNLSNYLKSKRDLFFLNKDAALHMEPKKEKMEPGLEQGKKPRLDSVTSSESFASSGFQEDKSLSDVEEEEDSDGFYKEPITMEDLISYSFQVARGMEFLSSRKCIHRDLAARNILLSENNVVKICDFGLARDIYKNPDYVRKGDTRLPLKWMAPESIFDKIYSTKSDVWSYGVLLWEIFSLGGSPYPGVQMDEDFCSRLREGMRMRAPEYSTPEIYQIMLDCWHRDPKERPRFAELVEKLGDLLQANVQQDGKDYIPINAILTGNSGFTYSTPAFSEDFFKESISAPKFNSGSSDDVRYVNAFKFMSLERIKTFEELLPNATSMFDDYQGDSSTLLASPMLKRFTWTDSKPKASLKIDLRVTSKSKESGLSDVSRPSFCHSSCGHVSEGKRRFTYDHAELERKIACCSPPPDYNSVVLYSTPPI
Assay type: cell-based
Settings: huvec

SMILES	IC50
C[C@]12CC[C@@H]3c4ccc(OC(=O)c5ccccc5)cc4CC[C@H]3[C@@H]1CC[C@@H]2O [ESTRADIOL BENZOATE]	Not Active
C[C@]12CC[C@@H]3c4ccc(O)cc4CC[C@H]3[C@@H]1CC[C@@H]2O [ESTRADIOL]	Not Active
CC[C@@H](CO)NCCN[C@@H](CC)CO [ETHAMBUTOL]	Not Active
CC1(C)O[C@@H]2C[C@H]3[C@@H]4C[C@H](F)C5=CC(=O)C=C[C@]5(C)[C@H]4[C@@H](O)C[C@]3(C)[C@]2(C(=O)CO)O1 [FLUNISOLIDE]	Not Active
CC1(C)O[C@@H]2C[C@H]3[C@@H]4C[C@H](F)C5=CC(=O)C=C[C@]5(C)[C@@]4(F)[C@@H](O)C[C@]3(C)[C@]2(C(=O)CO)O1 [FLUOCINOLONE ACETONIDE]	Not Active
CC1(C)O[C@@H]2C[C@H]3[C@@H]4C[C@H](F)C5=CC(=O)CC[C@]5(C)[C@H]4[C@@H](O)C[C@]3(C)[C@]2(C(=O)CO)O1 [FLURANDRENOLIDE]	Not Active
Cc1ccc(S(=O)(=O)NC(=O)NN2CC3CCCC3C2)cc1 (stereo not drawn) [GLICLAZIDE]	Not Active
CC(C)Cc1ccc(C(C)C(=O)O)cc1 (stereo not drawn) [IBUPROFEN]	Not Active
COc1ccc2c(c1)c(CC(=O)O)c(C)n2C(=O)c1ccc(Cl)cc1 [INDOMETHACIN]	Not Active
CCc1c2c(nc3ccc(OC(=O)N4CCC(N5CCCCC5)CC4)cc13)-c1cc3c(c(=O)n1C2)COC(=O)[C@]3(O)CC [IRINOTECAN]	Not Active
CC(C(=O)O)c1cccc(C(=O)c2ccccc2)c1 (stereo not drawn) [KETOPROFEN]	Not Active

Test system: not listed separately
Experiment: DRUGMATRIX: Serotonin (5-Hydroxytryptamine) 5-HT3 radioligand binding (ligand: [3H] GR-65630)
Assay type: cell membranes, Membrane
Settings: hek293; Not Active = under 50% inhibition at 10 µM

SMILES	IC50	Ki
C[C@]12CC[C@@H]3c4ccc(OC(=O)c5ccccc5)cc4CC[C@H]3[C@@H]1CC[C@@H]2O [ESTRADIOL BENZOATE]	Not Active	Not Active
C[C@]12CC[C@@H]3c4ccc(O)cc4CC[C@H]3[C@@H]1CC[C@@H]2O [ESTRADIOL]	Not Active	Not Active
CC[C@@H](CO)NCCN[C@@H](CC)CO [ETHAMBUTOL]	Not Active	Not Active
CC1(C)O[C@@H]2C[C@H]3[C@@H]4C[C@H](F)C5=CC(=O)C=C[C@]5(C)[C@H]4[C@@H](O)C[C@]3(C)[C@]2(C(=O)CO)O1 [FLUNISOLIDE]	Not Active	Not Active
CC1(C)O[C@@H]2C[C@H]3[C@@H]4C[C@H](F)C5=CC(=O)C=C[C@]5(C)[C@@]4(F)[C@@H](O)C[C@]3(C)[C@]2(C(=O)CO)O1 [FLUOCINOLONE ACETONIDE]	Not Active	Not Active
CC1(C)O[C@@H]2C[C@H]3[C@@H]4C[C@H](F)C5=CC(=O)CC[C@]5(C)[C@H]4[C@@H](O)C[C@]3(C)[C@]2(C(=O)CO)O1 [FLURANDRENOLIDE]	Not Active	Not Active
Cc1ccc(S(=O)(=O)NC(=O)NN2CC3CCCC3C2)cc1 (stereo not drawn) [GLICLAZIDE]	Not Active	Not Active
CC(C)Cc1ccc(C(C)C(=O)O)cc1 (stereo not drawn) [IBUPROFEN]	Not Active	Not Active
COc1ccc2c(c1)c(CC(=O)O)c(C)n2C(=O)c1ccc(Cl)cc1 [INDOMETHACIN]	Not Active	Not Active
CCc1c2c(nc3ccc(OC(=O)N4CCC(N5CCCCC5)CC4)cc13)-c1cc3c(c(=O)n1C2)COC(=O)[C@]3(O)CC [IRINOTECAN]	Not Active	Not Active
CC(C(=O)O)c1cccc(C(=O)c2ccccc2)c1 (stereo not drawn) [KETOPROFEN]	Not Active	Not Active

Biological target: Sigma non-opioid intracellular receptor 1 (Homo sapiens, UniProt Q99720)
Sequence (Q99720 whole entry): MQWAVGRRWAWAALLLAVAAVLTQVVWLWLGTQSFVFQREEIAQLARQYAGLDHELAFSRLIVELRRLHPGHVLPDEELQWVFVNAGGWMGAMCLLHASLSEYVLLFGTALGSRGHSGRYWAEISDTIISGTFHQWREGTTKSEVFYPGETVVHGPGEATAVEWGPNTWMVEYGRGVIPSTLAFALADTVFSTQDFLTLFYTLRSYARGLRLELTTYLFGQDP
Experiment: DRUGMATRIX: Sigma1 radioligand binding (ligand: [3H] Haloperidol)
Assay type: cell membranes, Jurkat, Membrane
Settings: jurkat; Not Active = under 50% inhibition at 10 µM

SMILES	IC50
C[C@]12CC[C@@H]3c4ccc(OC(=O)c5ccccc5)cc4CC[C@H]3[C@@H]1CC[C@@H]2O [ESTRADIOL BENZOATE]	Not Active
C[C@]12CC[C@@H]3c4ccc(O)cc4CC[C@H]3[C@@H]1CC[C@@H]2O [ESTRADIOL]	Not Active
CC[C@@H](CO)NCCN[C@@H](CC)CO [ETHAMBUTOL]	Not Active
CC1(C)O[C@@H]2C[C@H]3[C@@H]4C[C@H](F)C5=CC(=O)C=C[C@]5(C)[C@H]4[C@@H](O)C[C@]3(C)[C@]2(C(=O)CO)O1 [FLUNISOLIDE]	Not Active
CC1(C)O[C@@H]2C[C@H]3[C@@H]4C[C@H](F)C5=CC(=O)C=C[C@]5(C)[C@@]4(F)[C@@H](O)C[C@]3(C)[C@]2(C(=O)CO)O1 [FLUOCINOLONE ACETONIDE]	Not Active
CC1(C)O[C@@H]2C[C@H]3[C@@H]4C[C@H](F)C5=CC(=O)CC[C@]5(C)[C@H]4[C@@H](O)C[C@]3(C)[C@]2(C(=O)CO)O1 [FLURANDRENOLIDE]	Not Active
Cc1ccc(S(=O)(=O)NC(=O)NN2CC3CCCC3C2)cc1 (stereo not drawn) [GLICLAZIDE]	Not Active
CC(C)Cc1ccc(C(C)C(=O)O)cc1 (stereo not drawn) [IBUPROFEN]	Not Active
COc1ccc2c(c1)c(CC(=O)O)c(C)n2C(=O)c1ccc(Cl)cc1 [INDOMETHACIN]	Not Active
CCc1c2c(nc3ccc(OC(=O)N4CCC(N5CCCCC5)CC4)cc13)-c1cc3c(c(=O)n1C2)COC(=O)[C@]3(O)CC [IRINOTECAN]	Not Active
CC(C(=O)O)c1cccc(C(=O)c2ccccc2)c1 (stereo not drawn) [KETOPROFEN]	Not Active

From ChEMBL document CHEMBL1909046, “DrugMatrix in vitro pharmacology data”
